The target of one series is T1, Interstitial collagenase (Homo sapiens, UniProt P03956).
T1 sequence (P03956 whole entry): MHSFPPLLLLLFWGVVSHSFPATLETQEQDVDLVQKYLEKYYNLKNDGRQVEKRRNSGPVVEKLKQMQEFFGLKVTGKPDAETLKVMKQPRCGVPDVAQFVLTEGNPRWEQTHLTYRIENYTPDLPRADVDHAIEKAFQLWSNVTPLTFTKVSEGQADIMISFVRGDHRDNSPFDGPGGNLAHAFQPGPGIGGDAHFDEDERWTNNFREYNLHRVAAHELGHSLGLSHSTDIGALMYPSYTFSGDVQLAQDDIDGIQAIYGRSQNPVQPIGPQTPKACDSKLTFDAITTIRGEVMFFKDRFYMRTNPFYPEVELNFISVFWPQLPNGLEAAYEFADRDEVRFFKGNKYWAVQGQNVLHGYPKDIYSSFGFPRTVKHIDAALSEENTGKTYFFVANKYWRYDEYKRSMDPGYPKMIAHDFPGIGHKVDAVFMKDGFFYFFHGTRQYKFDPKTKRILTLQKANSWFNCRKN

The species entered for the next series is Rattus norvegicus. The conditions noted are these: in vivo, po.
The next series in a line: in vivo. To be noted: rat, po.
In the next series the target is Neutrophil collagenase (Homo sapiens, UniProt P22894).
Series [1] deals with Stromelysin-1 (Homo sapiens) (UniProt P08254).
Stromelysin-1 (Homo sapiens), sequence (P08254 whole entry, looked up): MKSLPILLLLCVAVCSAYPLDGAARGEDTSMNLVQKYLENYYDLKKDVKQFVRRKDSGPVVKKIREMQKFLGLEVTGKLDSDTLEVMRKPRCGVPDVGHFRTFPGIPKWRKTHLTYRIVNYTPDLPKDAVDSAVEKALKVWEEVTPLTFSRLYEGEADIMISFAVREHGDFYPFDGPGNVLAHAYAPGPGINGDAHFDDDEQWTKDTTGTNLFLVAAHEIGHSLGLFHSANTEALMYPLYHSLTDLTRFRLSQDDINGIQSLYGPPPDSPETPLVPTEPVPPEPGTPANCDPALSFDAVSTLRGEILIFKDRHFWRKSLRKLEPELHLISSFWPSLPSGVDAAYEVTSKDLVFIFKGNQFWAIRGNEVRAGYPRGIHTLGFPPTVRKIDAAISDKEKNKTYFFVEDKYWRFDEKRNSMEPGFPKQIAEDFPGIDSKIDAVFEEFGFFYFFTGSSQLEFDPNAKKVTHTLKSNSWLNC

Neutrophil collagenase, sequence (P22894 whole entry): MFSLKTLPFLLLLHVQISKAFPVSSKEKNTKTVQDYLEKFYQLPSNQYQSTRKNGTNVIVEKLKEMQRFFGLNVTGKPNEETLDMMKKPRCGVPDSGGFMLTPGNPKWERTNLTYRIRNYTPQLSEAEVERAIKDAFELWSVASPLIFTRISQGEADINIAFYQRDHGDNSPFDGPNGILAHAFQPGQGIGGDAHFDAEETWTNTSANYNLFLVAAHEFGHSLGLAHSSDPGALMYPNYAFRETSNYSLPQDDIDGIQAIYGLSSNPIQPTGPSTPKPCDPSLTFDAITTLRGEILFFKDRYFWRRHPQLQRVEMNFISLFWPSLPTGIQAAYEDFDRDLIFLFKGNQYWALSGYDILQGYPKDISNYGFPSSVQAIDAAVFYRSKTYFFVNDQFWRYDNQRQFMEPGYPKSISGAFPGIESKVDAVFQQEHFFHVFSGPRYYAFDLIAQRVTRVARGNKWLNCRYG

Consider `CS(=O)(=O)N(C[C@H](C(=O)NO)[C@@H](CC1CCCC1)C(=O)N1CCCCC1)C1CC1`, for which the IC50 on Interstitial collagenase was 10 nM.

With `CN(C[C@H](C(=O)NO)[C@@H](CC1CCCC1)C(=O)N1CCCCC1)S(C)(=O)=O`, the AUC in the series filed under Rattus norvegicus stood at 662 ng·h/mL. In “in vivo”, this compound came in with a Cmax at 0.5 h of 172 ng/mL.

Compound `COc1ccc(S(=O)(=O)N(C)C[C@H](C(=O)NO)[C@@H](CC2CCCC2)C(=O)N2CCOCC2)cc1` gave an IC50 at Interstitial collagenase of 10 nM.

As to `CC(C)C[C@@H](C(=O)N1CCCCC1)[C@H](CN(C)S(C)(=O)=O)C(=O)NO`, on Interstitial collagenase, the IC50 is 60 nM.

In the case of `CC(C)C[C@@H](C(=O)N1CCCCC1)[C@H](O)C(=O)NO`, the IC50 against Interstitial collagenase amounted to 800 nM; on Neutrophil collagenase, 1000 nM. In series [1], the IC60 worked out at 100000 nM.

On Interstitial collagenase, `CN(C[C@H](C(=O)NO)[C@@H](CC1CCCC1)C(=O)N1CCOCC1)S(C)(=O)=O` registered a half-maximal inhibitory concentration (IC50) of 5 nM.

Take `CN(C[C@H](C(=O)NO)[C@@H](CC1CCCC1)C(=O)N1CCCCC1)S(=O)(=O)c1cccc2ccccc12`: the IC50 against Interstitial collagenase amounted to 6 nM.

`CN(C[C@H](C(=O)NO)[C@@H](CC1CCCC1)C(=O)N1CCCCC1)S(=O)(=O)c1ccc(Cl)cc1` had an IC50 on Interstitial collagenase of 9 nM.

On Interstitial collagenase, `CC(C)C[C@@H](C(=O)N(C)C)[C@H](CN(C)S(C)(=O)=O)C(=O)NO` showed an IC50 of 1000 nM.

Regarding `CC(C)C[C@@H](C(=O)N1CCOCC1)[C@H](CN1C(=O)c2ccccc2C1=O)C(=O)NO`, the IC50 is 20 nM against Interstitial collagenase and 600 nM against Neutrophil collagenase.

For orientation: IC50 means the concentration that inhibits the measured activity by half. Low values mean inhibition by little substance, high ones a need for much substance. As a reminder, the AUC is concentration integrated over time. A lower AUC goes with low exposure. The term Cmax denotes the highest concentration seen after dosing.

The record behind these values is ChEMBL document CHEMBL1132007, “The synthesis and biological evaluation of non-peptidic matrix metalloproteinase inhibitors” (Bioorg Med Chem Lett, 1999).
